{"source": "patent US20200038415A1", "about": "“AMINOSTEROL COMPOSITIONS AND METHODS OF USING THE SAME FOR TREATING ERECTILE DYSFUNCTION” (Enterin, Inc., priority 2018, published 2020)", "key": {"[1]": {"experiment": "Solubility in water", "type": "physicochemical", "settings": "phosphate salt"}, "[2]": {"tested_on": "PD patients with constipation", "experiment": "Safety and adverse event profile, Stage 1", "type": "in vivo, human", "text": "(§1) Tolerability limits included diarrhea or vomiting."}, "[3]": {"tested_on": "PD patients with constipation", "experiment": "Circadian rhythm of wrist skin temperature", "type": "in vivo, human", "settings": "for circadian rhythm of skin temperature: markers of healthy circadian function (IS, RA, CFI, IV): fixed dose vs baseline, 12 evaluable patients", "experimental": "(6) I-Button Temperature Assessment. The I-Button is a small, rugged self-sufficient system that measures temperature and records the results in a protected memory section. The Thermochron I-Button DS1921H (Maxim Integrated, Dallas, Tex.) was used for skin temperature measurement. I-Buttons were programmed to sample every 10 mins., and attached to a double-sided cotton sport wrist band using Velcro, with the sensor face of the I-Button placed over the inside of the wrist, on the radial artery of the dominant hand. Subjects removed and replaced the data logger when necessary (i.e., to have a bath or shower). The value of skin temperature assessment in sleep research is that the endogenous skin warming resulting from increased skin blood flow is functionally linked to sleep propensity. From the collected data, the mesor, amplitude, acrophase (time of peak temperature), Rayleight test (an index of interdaily stability), mean waveforms are calculated.);\nAssessments were made at baseline and at the end of the fixed dose and washout periods. Circadian system status was evaluated by continuously monitoring wrist skin temperature (Thermochron iButton DS1921H; Maxim, Dallas) following published procedures (Sarabia et al. 2008).\nCircadian rhythm of skin temperature was evaluable in 12 patients (i.e., those who had recordings that extended from baseline through washout). Circadian system functionality was evaluated by continuously monitoring wrist skin temperature using a temperature sensor (Thermochron iButton DS1921H; Maxim, Dallas, Tex.) (Sarabia et al. 2008). […]\nBriefly, this analysis includes the following parameters: (i) the inter-daily stability (the constancy of 24-hour rhythmic pattern over days, IS); (ii) intra-daily variability (rhythm fragmentation, IV); (iii) average of 10-minute intervals for the 10 hours with the minimum temperature (L10); (iv) average of 10-minute intervals for the 5 hours with the maximum temperature (M5) and the relative amplitude (RA), which was determined by the difference between M5 and L10, divided by the sum of both. […]"}, "[4]": {"experiment": "Preclinical oral bioavailability and intestinal absorption in rats", "type": "in vivo", "settings": "oral radioactive ENT-01, portal blood concentrations"}, "[5]": {"tested_on": "PD patients with constipation", "experiment": "Safety and adverse event profile, Stage 1 and 2 combined (44 dosed)", "type": "in vivo, human", "experimental": "Fifty patients were enrolled and 44 were dosed. In Stage 1, 10 patients were dosed, 1 (10%) withdrew prior to completion and 9 (90%) completed dosing. In stage 2, 6 (15%) patients had ≥3 CSBM/week at the end of the run-in period and were excluded, 34 patients were dosed and bowel response was assessable in 31 (91%). Two patients (5.8%) were terminated prior to completion because of recurrent dizziness, and 3 others withdrew during dosing (8.8%): 2 because of diarrhea and 1 because of holiday. Fifteen patients were randomized."}, "[6]": {"tested_on": "PD patients with constipation", "experiment": "Phase 2 trial Stage 2: bowel function under daily oral dosing (fixed dose, randomized period, wash-out)", "type": "in vivo, human", "settings": "Stage 2 fixed dose", "experimental": "(§2) Following successful screening, all subjects underwent a 14-day run-in period where the degree of constipation was assessed through a validated daily log (Zinsmeister et al. 2013) establishing baseline CSBMs/week. Subjects with an average of <3 CSBMs/week proceeded to dosing.\n(§3) In Stage 2, 34 patients were evaluated.\nThe primary efficacy outcome variable was whether or not a subject was a “success” or “failure”. This is an endpoint based on subject diary entries for the “fixed dose” period prior to the endpoint assessment defined as average complete stool frequency increase by 1 or more over baseline, or 3 or more complete spontaneous stools/week. The subject was deemed a “success” if s/he met one or more of the criteria listed above, otherwise the subject was deemed a “failure”. The primary analysis was based on all subjects with a baseline assessment and an assessment at the end of the “fixed-dose” period and was a comparison of the proportion of successes with 0.10 (the null hypothesis corresponding to no treatment effect).\nThe proportion of subjects for whom the drug was a success was estimated with a binomial point estimate and corresponding 95% confidence interval. A secondary analysis compared the proportions of subjects who are deemed a success at the end of the randomized fixed-dose period between those randomized to the squalamine (ENT-01) arm and those randomized to the placebo arm. A Fisher's exact test was used to compare the proportions of subjects who were deemed a success at the end of randomization period between the two randomized arms"}, "[7]": {"tested_on": "PD patients with constipation", "experiment": "Phase 2 trial Stage 1: prokinetic response to single escalating oral doses", "type": "in vivo, human", "settings": "Example 1, FIG. 1A", "experimental": "as §2, §1"}, "[8]": {"tested_on": "PD patients with constipation", "experiment": "Safety and adverse event profile, Stage 2", "type": "in vivo, human", "experimental": "as §3"}}, "note": "“Also recorded” adds a separate entry of the source.", "data": [{"compound": "CC(C)[C@@H](CC[C@@H](C)[C@H]1CC[C@H]2[C@@H]3[C@H](O)C[C@H]4C[C@@H](NCCCNCCCCN)CC[C@]4(C)[C@H]3CC[C@]12C)OS(=O)(=O)O", "note": "(single isomer, unassigned) [squalamine (ENT-01), squalamine]", "values": [{"measurement": "solubility in water", "setting": "[1]; neutral pH", "value": "weakly soluble"}, {"measurement": "solubility in water", "setting": "[1]; pH<3.5 (the pH of gastric fluid)", "value": "readily dissolves"}, {"measurement": "diarrhea, patients", "setting": "[2]; Stage 1, 4/10 patients", "value": 40, "unit": "%"}, {"measurement": "nausea, patients", "setting": "[2]; Stage 1, 4/10 patients", "value": 40, "unit": "%"}, {"measurement": "AEs confined to the GI tract", "setting": "[2]; Stage 1, share of AEs", "value": 88, "unit": "%"}, {"measurement": "circadian rhythm of skin temperature: markers of healthy circadian function (IS, RA, CFI, IV)", "setting": "[3]", "value": "significant positive impact; also recorded: improved all markers of healthy circadian function"}, {"measurement": "circadian rhythm of skin temperature: markers of healthy circadian function (IS, RA, CFI, IV)", "setting": "[3]; listed as Aminosterol", "value": "improved all markers of healthy circadian function"}, {"measurement": "circadian parameters during wash-out (IS, CFI)", "setting": "[3]; wash-out period", "value": "improvement persisted for several of these circadian parameters"}, {"measurement": "absorption from the intestine", "setting": "[4]", "value": "low"}, {"measurement": "worsening of hemorrhoids, patients", "setting": "[5]; 1/44 patients", "value": 2.2, "unit": "%"}, {"measurement": "worsening of acid reflux, patients", "setting": "[5]; 2/44 patients", "value": 4.5, "unit": "%"}, {"measurement": "flatulence, patients", "setting": "[5]; 3/44 patients", "value": 6.8, "unit": "%"}, {"measurement": "vomiting, patients", "setting": "[5]; 3/44 patients", "value": 6.8, "unit": "%"}, {"measurement": "dizziness, patients", "setting": "[5]; 8/44 patients", "value": 18, "unit": "%"}, {"measurement": "abdominal pain, patients", "setting": "[5]; 11/44 patients", "value": 32, "unit": "%"}, {"measurement": "outcome of all other AEs", "setting": "[5]; in vivo", "value": "resolved spontaneously without discontinuation"}, {"measurement": "CSBM, weekly average (mean, SD)", "setting": "[6]; n=34, baseline 1.2 (0.90)", "value": "3.8 /week"}, {"measurement": "SBM, weekly average (mean, SD)", "setting": "[6]; n=34, baseline 2.6 (1.45)", "value": "4.5 /week"}, {"measurement": "Suppository use / rescue medication, weekly average (mean, SD)", "setting": "[6]; baseline 1.8 (1.92)", "value": "0.3 /week"}, {"measurement": "Consistency, Bristol stool scale (mean, SD)", "setting": "[6]; scale 1-7, baseline 2.7 (1.20), listed as aminosterol", "value": 4.1}, {"measurement": "Ease of passage, Ease of evacuation scale (mean, SD)", "setting": "[6]; scale 1-7, baseline 3.2 (0.73), listed as aminosterol", "value": 3.7}, {"measurement": "subjects responded with improved bowel function", "setting": "[7]", "value": 80, "unit": "%"}, {"measurement": "patients who withdrew during dosing because of diarrhea", "setting": "[8]; Stage 2", "value": 2, "unit": "patients"}, {"measurement": "diarrhea, patients", "setting": "[8]; Stage 2, 15/34 patients", "value": 44, "unit": "%"}, {"measurement": "Abdominal pain, Mild", "setting": "[8]; Stage 2, 34 dosed", "value": 4, "unit": "n"}, {"measurement": "Abdominal pain, Moderate", "setting": "[8]; Stage 2, 34 dosed", "value": 2, "unit": "n"}, {"measurement": "Blood in urine, Mild", "setting": "[8]; Stage 2, 34 dosed", "value": 0, "unit": "n"}, {"measurement": "Blood in urine, Moderate", "setting": "[8]; Stage 2, 34 dosed", "value": 0, "unit": "n"}, {"measurement": "Diarrhea, Mild", "setting": "[8]; Stage 2, 34 dosed", "value": 12, "unit": "n"}, {"measurement": "Diarrhea, Moderate", "setting": "[8]; Stage 2, 34 dosed", "value": 2, "unit": "n"}, {"measurement": "Diarrhea, Severe", "setting": "[8]; Stage 2, 34 dosed", "value": 1, "unit": "n"}, {"measurement": "Difficulty falling asleep, Mild", "setting": "[8]; Stage 2, 34 dosed", "value": 1, "unit": "n"}, {"measurement": "Difficulty falling asleep, Moderate", "setting": "[8]; Stage 2, 34 dosed", "value": 0, "unit": "n"}, {"measurement": "Dizziness, Mild", "setting": "[8]; Stage 2, 34 dosed", "value": 7, "unit": "n"}, {"measurement": "Dizziness, Moderate", "setting": "[8]; Stage 2, 34 dosed", "value": 1, "unit": "n"}, {"measurement": "Eye infection, Mild", "setting": "[8]; Stage 2, 34 dosed", "value": 1, "unit": "n"}, {"measurement": "Eye infection, Moderate", "setting": "[8]; Stage 2, 34 dosed", "value": 0, "unit": "n"}, {"measurement": "Flatulence, Mild", "setting": "[8]; Stage 2, 34 dosed", "value": 1, "unit": "n"}, {"measurement": "Flatulence, Moderate", "setting": "[8]; Stage 2, 34 dosed", "value": 0, "unit": "n"}, {"measurement": "Headache, Mild", "setting": "[8]; Stage 2, 34 dosed", "value": 3, "unit": "n"}, {"measurement": "Headache, Moderate", "setting": "[8]; Stage 2, 34 dosed", "value": 0, "unit": "n"}, {"measurement": "Increased urinary frequency, Mild", "setting": "[8]; Stage 2, 34 dosed", "value": 2, "unit": "n"}, {"measurement": "Increased urinary frequency, Moderate", "setting": "[8]; Stage 2, 34 dosed", "value": 0, "unit": "n"}, {"measurement": "Loss of appetite, Mild", "setting": "[8]; Stage 2, 34 dosed", "value": 0, "unit": "n"}, {"measurement": "Loss of appetite, Moderate", "setting": "[8]; Stage 2, 34 dosed", "value": 0, "unit": "n"}, {"measurement": "Nausea, Mild", "setting": "[8]; Stage 2, 34 dosed", "value": 18, "unit": "n"}, {"measurement": "Nausea, Moderate", "setting": "[8]; Stage 2, 34 dosed", "value": 1, "unit": "n"}, {"measurement": "Skin lesions-rash, Mild", "setting": "[8]; Stage 2, 34 dosed", "value": 3, "unit": "n"}, {"measurement": "Skin lesions-rash, Moderate", "setting": "[8]; Stage 2, 34 dosed", "value": 0, "unit": "n"}, {"measurement": "Urinary retention, Mild", "setting": "[8]; Stage 2, 34 dosed", "value": 1, "unit": "n"}, {"measurement": "Urinary retention, Moderate", "setting": "[8]; Stage 2, 34 dosed", "value": 0, "unit": "n"}, {"measurement": "Urinary tract infection, Mild", "setting": "[8]; Stage 2, 34 dosed", "value": 1, "unit": "n"}, {"measurement": "Urinary tract infection, Moderate", "setting": "[8]; Stage 2, 34 dosed", "value": 2, "unit": "n"}, {"measurement": "Vomiting, Mild", "setting": "[8]; Stage 2, 34 dosed", "value": 2, "unit": "n"}, {"measurement": "Vomiting, Moderate", "setting": "[8]; Stage 2, 34 dosed", "value": 0, "unit": "n"}, {"measurement": "Worsening acid reflux, Mild", "setting": "[8]; Stage 2, 34 dosed", "value": 4, "unit": "n"}, {"measurement": "Worsening acid reflux, Moderate", "setting": "[8]; Stage 2, 34 dosed", "value": 0, "unit": "n"}, {"measurement": "Worsening hemorrhoid, Mild", "setting": "[8]; Stage 2, 34 dosed", "value": 1, "unit": "n"}, {"measurement": "Worsening hemorrhoid, Moderate", "setting": "[8]; Stage 2, 34 dosed", "value": 0, "unit": "n"}, {"measurement": "AEs confined to the GI tract", "setting": "[8]; Stage 2, share of AEs", "value": 63, "unit": "%"}, {"measurement": "Lower GI bleed, Severe", "setting": "[8]; Stage 2, Unrelated to ENT-01", "value": 1, "unit": "n"}, {"measurement": "lower GI bleed (Serious adverse event, SAE)", "setting": "[8]; during the withdrawal period, considered unrelated to study medication", "value": "One patient"}]}]}
